Active and inactive are the calls of the source. The calls are words filed in the database; no cut-off is given here.
What was measured:
[1] = target: 5-hydroxytryptamine receptor 2A (Mus musculus) (UniProt P35363); experiment: Agonist activity at mouse 5-HT2A receptor expressed in Flp-In T-REx 293 cells assessed as induction of Gq-mediated calcium flux incubated for 1 hr by Flou4-AM dye based FLIPR assay relative to serotonin; format: functional, cell-based
[2] = target: 5-hydroxytryptamine receptor 2A (Homo sapiens) (UniProt P28223); experiment: Agonist activity at human 5-HT2A receptor expressed in Flp-In T-REx 293 cells assessed as induction of Gq-mediated calcium flux incubated for 1 hr by Flou4-AM dye based FLIPR assay relative to serotonin; format: functional, cell-based
[3] = target: 5-hydroxytryptamine receptor 2A (Mus musculus, UniProt P35363); experiment: Agonist activity at mouse 5-HT2A receptor expressed in Flp-In T-REx 293 cells assessed as induction of Gq-mediated calcium flux incubated for 1 hr by Flou4-AM dye based FLIPR assay; format: functional, cell-based
Mus musculus [4] = experiment: Induction of head-twitch response in C57BL/6J mouse at 0.03 to 3 mg/kg, ip measured for 20 mins; format: functional, organism-based
Mus musculus [5] = experiment: Induction of head-twitch response in ip dosed C57BL/6J mouse measured for 20 mins; format: functional

Sequence of 5-hydroxytryptamine receptor 2A (Mus musculus) (P35363 whole entry): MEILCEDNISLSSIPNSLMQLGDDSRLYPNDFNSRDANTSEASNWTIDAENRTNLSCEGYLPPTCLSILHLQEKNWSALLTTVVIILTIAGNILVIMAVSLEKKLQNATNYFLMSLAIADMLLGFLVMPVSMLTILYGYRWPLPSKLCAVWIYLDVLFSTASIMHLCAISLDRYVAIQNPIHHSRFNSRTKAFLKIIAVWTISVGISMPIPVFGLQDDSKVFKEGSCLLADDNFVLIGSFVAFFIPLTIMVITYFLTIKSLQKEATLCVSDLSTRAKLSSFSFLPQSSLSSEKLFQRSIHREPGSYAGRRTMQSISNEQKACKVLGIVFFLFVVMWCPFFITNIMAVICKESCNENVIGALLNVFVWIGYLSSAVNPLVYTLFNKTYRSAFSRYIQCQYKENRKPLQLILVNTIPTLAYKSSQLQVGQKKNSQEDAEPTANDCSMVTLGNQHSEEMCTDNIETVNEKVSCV
Sequence of 5-hydroxytryptamine receptor 2A (P35363 whole entry): as above
Sequence of 5-hydroxytryptamine receptor 2A (Homo sapiens) (P28223 whole entry): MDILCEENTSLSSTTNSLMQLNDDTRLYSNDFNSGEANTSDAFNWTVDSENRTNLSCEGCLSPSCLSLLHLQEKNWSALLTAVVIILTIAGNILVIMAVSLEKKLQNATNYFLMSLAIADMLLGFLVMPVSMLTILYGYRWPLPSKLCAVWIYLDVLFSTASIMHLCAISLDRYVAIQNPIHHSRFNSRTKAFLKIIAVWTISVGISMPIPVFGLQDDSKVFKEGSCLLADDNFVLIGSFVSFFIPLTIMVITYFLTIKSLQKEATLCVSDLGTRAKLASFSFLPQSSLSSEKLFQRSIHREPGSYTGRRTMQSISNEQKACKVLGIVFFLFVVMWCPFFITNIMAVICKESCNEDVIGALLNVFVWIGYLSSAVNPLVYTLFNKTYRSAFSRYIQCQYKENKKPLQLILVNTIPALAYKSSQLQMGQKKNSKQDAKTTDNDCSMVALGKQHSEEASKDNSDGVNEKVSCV

| SMILES | Emax [1] [%] | Emax [2] [%] | EC50 [3] [nM] | Activity (Mus musculus [4]) | Activity (Mus musculus [5]) | ED50 (Mus musculus [5]) [mg/kg] |
| --- | --- | --- | --- | --- | --- | --- |
| CN(C)CCc1c[nH]c2cccc(O)c12 [PSILOCIN] | 72 | 73 | 9.9 | – | – | – |
| CNCCc1c[nH]c2cccc(OP(=O)(O)O)c12 | – | – | – | inactive | – | – |
| CNCCc1c[nH]c2cccc(O)c12 | 99 | 93 | 19 | – | – | – |
| CN(C)CCc1c[nH]c2cccc(OP(=O)(O)O)c12 [PSILOCYBIN] | – | – | – | – | Dose-dependent effect | 0.4 |
